Measurements taken from patent US20250114460A1, “NOVEL PLK1 DEGRADATION INDUCING COMPOUND” (UPPTHERA, INC., priority 2021, published 2025).

Target: T1, PLK1 (Homo sapiens, UniProt P53350)
T1 construct: endogenous in cells; host or cells: HeLa LgBit (Plk1-HiBit KI): HeLa stably expressing LgBit, with a CRISPR/Cas9 knock-in of HiBit at the endogenous PLK1 locus
Experiment: Luciferase assay for PLK1 in HeLa LgBit (Plk1-HiBit KI) cell line
Type: cell-based
Conditions: 300 nM compound, luminescence after 9 hours
Method: 2. Luciferase Assay for PLK1
(1) Preparation and Culture of HeLa LgBit (Plk1-HiBit KI) Cell Line
A HeLa cell line in which the LgBit vector was transfected and expressed stably was prepared. Then, after constructing gRNA and donor to express the HiBit amino acid sequence behind the C-terminal of the Plk1 gene, which was inherent in the cell, it was inserted into the cell together with a vector capable of expressing CRISPR/Cas9. Only the cells in which the insertion was completed and knock-in had progressed were selected, sub-cultured and used.
(2) Treatment of Compounds of the Present Invention and Method of Luciferase Assay
In the case of HeLa LgBit (Plk1-HiBit KI), the compounds were treated after being released after thymidine block, and the process was as follows. Thymidine (Sigma-Aldrich Cat. No. T9250-5G) was completely dissolved in DW and used in the experiment. For thymidine block, the products were treated with 2 mM of thymidine and then incubated for 24 hours. For release and chemical treatment, the medium was suctioned and washed with 1×PBS. TrypLE™ was added and incubated in 37° C. CO2 incubator for 5 min. Cells neutralized by adding complete media were counted through a counter. For each well of a 96-well culture plate (SPL), 3.3×10^4 cells and a total medium volume of 150 μL were seeded and incubated in a CO2 incubator.
Each cell line was incubated in a CO2 incubator for 18 hours, and Endurazine was added to each well to make up 4% of the total volume. After adding the compound of the present invention in a 96-well white plate (SPL) to a concentration of 300 nM, the wavelength of the plate reader (BMG Labtech, CLARIOstar Plus) was set to […], and then the luminescence was tracked in real time.
In Table 2, Activity represents the ratio of the luminescense value of each Exemplary Compound treatment group to DMSO treatment group (+++: <0.3, ++<0.6, +<0.7).

T1 sequence (P53350 whole entry): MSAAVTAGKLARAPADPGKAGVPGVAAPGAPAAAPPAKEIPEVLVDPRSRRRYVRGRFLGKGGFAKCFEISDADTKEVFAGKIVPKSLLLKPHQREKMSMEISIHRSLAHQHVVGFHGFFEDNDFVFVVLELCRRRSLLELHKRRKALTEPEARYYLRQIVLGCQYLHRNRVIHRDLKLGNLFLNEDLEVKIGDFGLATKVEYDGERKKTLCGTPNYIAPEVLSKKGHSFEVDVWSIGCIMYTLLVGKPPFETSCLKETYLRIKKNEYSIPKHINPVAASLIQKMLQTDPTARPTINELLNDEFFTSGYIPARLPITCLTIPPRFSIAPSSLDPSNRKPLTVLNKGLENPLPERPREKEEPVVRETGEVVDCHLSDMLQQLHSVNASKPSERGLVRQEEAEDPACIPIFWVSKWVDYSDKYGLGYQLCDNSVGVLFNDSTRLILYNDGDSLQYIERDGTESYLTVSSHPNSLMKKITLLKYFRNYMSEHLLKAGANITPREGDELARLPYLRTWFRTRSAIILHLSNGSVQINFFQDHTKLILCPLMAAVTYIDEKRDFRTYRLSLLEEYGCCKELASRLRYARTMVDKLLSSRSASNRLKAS

Compound	Activity: ratio of the luminescense value of each Exemplary Compound treatment group to DMSO treatment group
COc1cc(C(=O)NC2CCN(CCOc3ccc4c(c3)C(=O)N(C3CCC(=O)NC3=O)C4=O)CC2)c(F)cc1Nc1ncc2c(n1)N(C1CCCC1)CC(F)(F)C(=O)N2C (centres unmarked) [Compound 3, 4-((9-cyclopentyl-7,7-difluoro-5-methyl-6-oxo-6,7,8,9-tetrahydro-5H-pyrimido[4,5-b][1,4]diazepin-2-yl)amino)-N-(1-(2-((2-(2,6-dioxopiperidin-3-yl)-1,3-dioxoisoindolin-5-yl)oxy)ethyl)piperidin-4-yl)-2-fluoro-5-methoxybenzamide]	++ (++<0.6)
COc1cc(C(=O)NC2CCN(CCCC3CCCN(c4cccc5c4C(=O)N(C4CCC(=O)NC4=O)C5=O)C3)CC2)ccc1Nc1ncc2c(n1)N(C1CCCC1)CC(F)(F)C(=O)N2C (centres unmarked) [Compound 57, 4-((9-cyclopentyl-7,7-difluoro-5-methyl-6-oxo-6,7,8,9-tetrahydro-5H-pyrimido[4,5-b][1,4]diazepin-2-yl)amino)-N-(1-(3-(1-(2-(2,6-dioxopiperidin-3-yl)-1,3-dioxoisoindolin-4-yl)piperidin-3-yl)propyl)piperidin-4-yl)-3-methoxybenzamide]	+ (+<0.7)
COc1cc(C(=O)NC2CCN(C(=O)COC3CN(c4cccc5c4C(=O)N(C4CCC(=O)NC4=O)C5=O)C3)CC2)ccc1Nc1ncc2c(n1)N(C1CCCC1)CC(F)(F)C(=O)N2C (centres unmarked) [Compound 80, 4-((9-cyclopentyl-7,7-difluoro-5-methyl-6-oxo-6,7,8,9-tetrahydro-5H-pyrimido[4,5-b][1,4]diazepin-2-yl)amino)-N-(1-(2-((1-(2-(2,6-dioxopiperidin-3-yl)-1,3-dioxoisoindolin-4-yl)azetidin-3-yl)oxy)acetyl)piperidin-4-yl)-3-methoxybenzamide]	++ (++<0.6)
COc1cc(C(=O)N[C@H]2CCN(C(=O)CCN3CCN(c4ccc5c(c4)CN(C4CCC(=O)NC4=O)C5=O)CC3)C2)c(F)cc1Nc1ncc2c(n1)N(C1CCCC1)CC(F)(F)C(=O)N2C (stereo partly drawn) [Compound 84, 4-((9-cyclopentyl-7,7-difluoro-5-methyl-6-oxo-6,7,8,9-tetrahydro-5H-pyrimido[4,5-b][1,4]diazepin-2-yl)amino)-N-((3S)-1-(3-(4-(2-(2,6-dioxopiperidin-3-yl)-1-oxoisoindolin-5-yl)piperazin-1-yl)propanoyl)pyrrolidin-3-yl)-2-fluoro-5-methoxybenzamide]	++ (++<0.6)
COc1cc(C(=O)NC2CCN(Cc3ccc(COc4ccc5c(c4)CN([C@H]4CCC(=O)NC4=O)C5=O)cc3)CC2)ccc1Nc1ncc2c(n1)N(C1CCCC1)CC(F)(F)C(=O)N2C [Compound 22, (S)-4-((9-cyclopentyl-7,7-difluoro-5-methyl-6-oxo-6,7,8,9-tetrahydro-5H-pyrimido[4,5-b][1,4]diazepin-2-yl)amino)-N-(1-(4-(((2-(2,6-dioxopiperidin-3-yl)-1-oxoisoindolin-5-yl)oxy)methyl)benzyl)piperidin-4-yl)-3-methoxybenzamide]	+ (+<0.7)
COc1cc(C(=O)N2CCN(CCCCN3CCN(c4cccc5c4C(=O)N(C4CCC(=O)NC4=O)C5=O)CC3)CC2)ccc1Nc1ncc2c(n1)N(C1CCCC1)CC(F)(F)C(=O)N2C (centres unmarked) [Compound 88, 4-(4-(4-(4-(4-((9-cyclopentyl-7,7-difluoro-5-methyl-6-oxo-6,7,8,9-tetrahydro-5H-pyrimido[4,5-b][1,4]diazepin-2-yl)amino)-3-methoxybenzoyl)piperazin-1-yl)butyl)piperazin-1-yl)-2-(2,6-dioxopiperidin-3-yl)isoindoline-1,3-dione]	++ (++<0.6)
COc1cc(C(=O)NC2CCN(C(=O)CCCN3CCN(c4cccc5c4C(=O)N(C4CCC(=O)NC4=O)C5=O)CC3)CC2)ccc1Nc1ncc2c(n1)N(C1CCCC1)CC(F)(F)C(=O)N2C (centres unmarked) [Compound 64, 4-((9-cyclopentyl-7,7-difluoro-5-methyl-6-oxo-6,7,8,9-tetrahydro-5H-pyrimido[4,5-b][1,4]diazepin-2-yl)amino)-N-(1-(4-(4-(2-(2,6-dioxopiperidin-3-yl)-1,3-dioxoisoindolin-4-yl)piperazin-1-yl)butanoyl)piperidin-4-yl)-3-methoxybenzamide]	++ (++<0.6)

More lines, now with the values ahead:

Activity: ratio of the luminescense value of each Exemplary Compound treatment group to DMSO treatment group	Compound
++ (++<0.6)	COc1cc(C(=O)N2CCC(CCCN3CCN(c4cccc5c4C(=O)N(C4CCC(=O)NC4=O)C5=O)CC3)CC2)ccc1Nc1ncc2c(n1)N(C1CCCC1)CC(F)(F)C(=O)N2C (centres unmarked) [Compound 95, 4-(4-(3-(1-(4-((9-cyclopentyl-7,7-difluoro-5-methyl-6-oxo-6,7,8,9-tetrahydro-5H-pyrimido[4,5-b][1,4]diazepin-2-yl)amino)-3-methoxybenzoyl)piperidin-4-yl)propyl)piperazin-1-yl)-2-(2,6-dioxopiperidin-3-yl)isoindoline-1,3-dione]
+ (+<0.7)	COc1cc(C(=O)NC2CCN(C[C@@H]3CCN(c4ccc5c(c4)C(=O)N(C4CCC(=O)NC4=O)C5=O)C3)CC2)ccc1Nc1ncc2c(n1)N(C1CCCC1)CC(F)(F)C(=O)N2C (stereo partly drawn) [Compound 48, 4-((9-cyclopentyl-7,7-difluoro-5-methyl-6-oxo-6,7,8,9-tetrahydro-5H-pyrimido[4,5-b][1,4]diazepin-2-yl)amino)-N-(1-(((3S)-1-(2-(2,6-dioxopiperidin-3-yl)-1,3-dioxoisoindolin-5-yl)pyrrolidin-3-yl)methyl)piperidin-4-yl)-3-methoxybenzamide]
++ (++<0.6)	COc1cc(C(=O)N2CCC(CCCCN3CCN(c4cccc5c4C(=O)N(C4CCC(=O)NC4=O)C5=O)CC3)CC2)ccc1Nc1ncc2c(n1)N(C1CCCC1)CC(F)(F)C(=O)N2C (centres unmarked) [Compound 96, 4-(4-(4-(1-(4-((9-cyclopentyl-7,7-difluoro-5-methyl-6-oxo-6,7,8,9-tetrahydro-5H-pyrimido[4,5-b][1,4]diazepin-2-yl)amino)-3-methoxybenzoyl)piperidin-4-yl)butyl)piperazin-1-yl)-2-(2,6-dioxopiperidin-3-yl)isoindoline-1,3-dione]
+ (+<0.7)	COc1cc(C(=O)NC2CCCC(N(C)C3CCN(c4cccc5c4C(=O)N(C4CCC(=O)NC4=O)C5=O)CC3)C2)ccc1Nc1ncc2c(n1)N(C(C)C)CC(F)(F)C(=O)N2C (centres unmarked) [Compound 166, 4-((7,7-difluoro-9-isopropyl-5-methyl-6-oxo-6,7,8,9-tetrahydro-5H-pyrimido[4,5-b][1,4]diazepin-2-yl)amino)-N-(3-((1-(2-(2,6-dioxopiperidin-3-yl)-1,3-dioxoisoindolin-4-yl)piperidin-4-yl)(methyl)amino)cyclohexyl)-3-methoxybenzamide]
+ (+<0.7)	COc1cc(C(=O)NC2CCN(C(=O)CC3CN(c4cccc5c4C(=O)N(C4CCC(=O)NC4=O)C5=O)C3)CC2)c(F)cc1Nc1ncc2c(n1)N(C1CCCC1)CC(F)(F)C(=O)N2C (centres unmarked) [Compound 204, 4-((9-cyclopentyl-7,7-difluoro-5-methyl-6-oxo-6,7,8,9-tetrahydro-5H-pyrimido[4,5-b][1,4]diazepin-2-yl)amino)-N-(1-(2-(1-(2-(2,6-dioxopiperidin-3-yl)-1,3-dioxoisoindolin-4-yl)azetidin-3-yl)acetyl)piperidin-4-yl)-2-fluoro-5-methoxybenzamide]
++ (++<0.6)	COc1cc(C(=O)NC2CC(N(C)CC3CCN(c4ccc5c(c4)C(=O)N(C4CCC(=O)NC4=O)C5=O)CC3)C2)ccc1Nc1ncc2c(n1)N(C1CCCC1)CC(F)(F)C(=O)N2C (centres unmarked) [Compound 104, 4-((9-cyclopentyl-7,7-difluoro-5-methyl-6-oxo-6,7,8,9-tetrahydro-5H-pyrimido[4,5-b][1,4]diazepin-2-yl)amino)-N-(3-(((1-(2-(2,6-dioxopiperidin-3-yl)-1,3-dioxoisoindolin-5-yl)piperidin-4-yl)methyl)(methyl)amino)cyclobutyl)-3-methoxybenzamide]
++ (++<0.6)	COc1cc(C(=O)NCCOCCOCCOCCNc2cccc3c2C(=O)N(C2CCC(=O)NC2=O)C3=O)c(N2CCN(C)CC2)cc1Nc1ncc2c(n1)N(C1CCCC1)CC(F)(F)C(=O)N2C (centres unmarked) [Compound 223, 4-((9-cyclopentyl-7,7-difluoro-5-methyl-6-oxo-6,7,8,9-tetrahydro-5H-pyrimido[4,5-b][1,4]diazepin-2-yl)amino)-N-(2-(2-(2-(2-((2-(2,6-dioxopiperidin-3-yl)-1,3-dioxoisoindolin-4-yl)amino)ethoxy)ethoxy)ethoxy)ethyl)-5-methoxy-2-(4-methylpiperazin-1-yl)benzamide]
